Laboratory results reported in patent US11040959B2, “Diprovocims: a new and potent class of TLR agonists” (The Scripps Research Institute, priority 2016, dated 2021).
Like-named read-outs stand apart in the source and are kept apart here. Blank lines part the entries; values can stand above or below the compound they belong to.

Assays:
[1] = tested on: differentiated human THP-1 cells; assay: stimulated release of TNF-α from differentiated human THP-1 cells (ELISA, dose-response); assay type: cell-based; conditions: for EC50: Homo sapiens
Experimental: A screening campaign was conducted with nearly 100,000 compounds [(a) Whitby et al., Acc. Chem. Res. 2012, 45:1698-1709; and (b) Boger et al., Angew. Chem. Int. Ed. 2003, 42:4138-4176], using a newly developed functional assay that measured the stimulated release of TNF-α from treated human THP-1 cells partially differentiated along the macrophage line [unpublished results of the inventors and co-workers]. […] The libraries screened in the efforts represent a unique compound collection populated by nontraditional compounds [(a) Whitby et al., Acc. Chem. Res. 2012, 45:1698-1709; and (b) Boger et al., Angew. Chem. Int. Ed. 2003, 42:4138-4176] designed to target protein-protein [(a) Shaginian et al., J. Am. Chem. Soc. 2009, 131:5564-5572; and (b) Whitby et al., J. Am. Chem. Soc. 2011, 133:10184-10194] or protein-DNA interactions [Stover et al., J. Am. Chem. Soc. 2009, 131:3342-3348] as well as the major enzyme classes [Otrubova et al., Bioorg. Med. Chem. Lett. 2014, 24:3807-3813].
Hits were confirmed in an ELISA assay for stimulated TNF-α release from human PMA differentiated THP-1 cells and this assay was used for establishing dose-response curves and measured EC50 values.

mouse macrophages = assay: stimulated release of TNF-α from mouse macrophages; assay type: cell-based; conditions: tested up to 5 μM where stated
From the text: EC50 values are derived from dose-response curves for the stimulated release of TNF-α from differentiated THP-1 cells or mouse macrophages are shown beneath each appropriate structural formula of Compounds 8-12. Half maximal effective concentration (EC50) refers to the concentration of a drug, antibody or toxicant that induces a response halfway between the baseline and maximum after a specified exposure time. It is commonly used as a measure of a drug's potency.

[2] = THP-1, running text, read-out: EC50, stimulated release of TNF-α from differentiated human THP-1 cells

Structure (SMILES): O=C(NCCc1ccccc1)[C@@H]1CN(C(=O)c2ccc(C(=O)N3C[C@@H](C(=O)NCCc4ccccc4)[C@H](C(=O)N[C@H]4C[C@@H]4c4ccccc4)C3)cc2)C[C@H]1C(=O)NCCc1ccccc1 (relative stereo) [Compound 9]
activity in stimulating TNF-α release from human THP-1 cells (in words) ([1]; tested up to 5 μM where stated): inactive

Structure (SMILES): O=C(CCN(CCC(=O)N[C@H]1C[C@@H]1c1ccccc1)C(=O)c1ccc(C(=O)N(CCC(=O)N[C@H]2C[C@@H]2c2ccccc2)CCC(=O)N[C@H]2C[C@@H]2c2ccccc2)cc1)N[C@H]1C[C@@H]1c1ccccc1 [Compound 34, N^1,N^1,N^4,N^4-Tetrakis(3-oxo-3-(((1S,2R)-2-phenyl-cyclopropyl)amino)propyl)terephthalamide]
activity in stimulating TNF-α release from mouse macrophages (in words) (mouse macrophages): inactive

Structure (SMILES): O=C(NCCc1ccc(F)cc1)[C@H]1CN(C(=O)c2ccc(C(=O)N3C[C@H](C(=O)NCCc4ccc(F)cc4)[C@@H](C(=O)NCCc4ccc(F)cc4)C3)cc2)C[C@@H]1C(=O)NCCc1ccc(F)cc1 (racemic) [Compound 69, 1,1′-Terephthaloylbis(N^3,N^4-bis(4-fluoro-phenethyl)-yrrolidine-trans-3,4-dicarboxamide)]
EC50 [1, 2]: 100 nM

Structure (SMILES): O=C(N[C@H]1C[C@@H]1c1ccccc1)[C@H]1CCN(C(=O)c2ccc(C(=O)N3C[C@@H](C(=O)N[C@H]4C[C@@H]4c4ccccc4)[C@H](C(=O)N[C@H]4C[C@@H]4c4ccccc4)C3)cc2)C1 [Compound 29, (3S,4S)—N^3,N^4-Bis((1S,2R)-2-phenyl-cyclopropyl)-1-(4-((S)-3-(((1S,2R)-2-phenyl-cyclopropyl)-carbamoyl)-pyrrolidine-1-carbonyl)-benzoyl)pyrrolidine-3,4-dicarboxamide]
EC50 [1, 2]: 200 nM
fold less active/potent than diprovocim-1 (3) ([1]; human THP-1 cells): 2000 fold

Structure (SMILES): O=C(NCCc1ccccc1)[C@@H]1CN(C(=O)c2ccc(C(=O)N3C[C@@H](C(=O)NCCc4ccccc4)[C@H](C(=O)N[C@H]4C[C@@H]4c4ccccc4)C3)cc2)C[C@H]1C(=O)N[C@H]1C[C@@H]1c1ccccc1 (stereo in doubt) [Compound 10, trans,trans-1, 1′-Terephthaloylbis(N^3-phenethyl-N^4-(trans-2-phenylcyclopropyl)pyrrolidine-3,4-dicarboxamide)]
EC50 [1, 2]: 80 nM

Now from value to compound, other results behind:

EC50 [1, 2]: 70 nM
Structure (SMILES): O=C(NCCc1ccc(F)cc1)[C@H]1CN(C(=O)c2ccc(C(=O)N3C[C@@H](C(=O)NCCc4ccc(F)cc4)[C@H](C(=O)NCCc4ccc(F)cc4)C3)cc2)C[C@@H]1C(=O)NCCc1ccc(F)cc1 [Compound 99, (3S,4S)-1-(4-((3R,4R)-3,4-Bis((4-fluorophen-ethyl)carbamoyl)pyrrolidine-1-carbonyl)benzoyl)—N^3,N^4-bis(4-fluorophenethyl)pyrrolidine-3,4-dicarboxamide]

EC50 ([1]; THP-1, Table 5 footnote, racemates, TNF-α release from human differentiated THP-1 cells, read-out: EC50): 1000 nM
EC50 [1, 2]: 1000 nM
Structure (SMILES): O=C(NCCc1cccc(F)c1)[C@H]1CN(C(=O)c2ccc(C(=O)N3C[C@H](C(=O)NCCc4cccc(F)c4)[C@@H](C(=O)NCCc4cccc(F)c4)C3)cc2)C[C@@H]1C(=O)NCCc1cccc(F)c1 (racemic) [Compound 84, 1,1′-Terephthaloylbis(N^3,N^4-bis(3-fluoro-phenethyl)pyrrolidine-trans-3,4-dicarboxamide)]
fold less active (3- vs 4-fluorophenethylamide) ([1]; human THP-1 cells, racemates): > 10 fold

EC50 ([1]; THP-1, running text b169, read-out: EC50, stimulated release of TNF-α from human THP-1 cells): > 5000 nM
Structure (SMILES): O=C(NCCc1ccc(F)cc1)[C@H]1CN(C(=O)c2ccc(C(=O)N3C[C@H](C(=O)NCCc4ccc(F)cc4)[C@@H](C(=O)NCCc4ccc(F)cc4)C3)cc2)C[C@@H]1C(=O)NCCc1ccc(F)cc1 [Compound 98, (3R,3′R,4R,4′R)-1,1′-Terephthaloyl-bis(N^3,N^4-bis-(4-fluorophenethyl)pyrrolidine-3,4-dicarboxamide)]
fold less potent than the all S enantiomer 4 ([1]; human THP-1 cells): > 100 fold
